Columns and labels:
[1] = tested on: MRC5; experiment: Cytotoxicity against human MRC5 cells assessed as growth inhibition measured after 72 hrs by MTS assay; assay type: cell-based; conditions: MRC5, 72 h
[2] = tested on: Plasmodium falciparum; experiment: Antiplasmodial activity against chloroquine-resistant Plasmodium falciparum FcB1/Colombia infected in human red blood cells assessed as reduction in [3H]-hypoxanthine incorporation measured after 24 hrs liquid scintillation counting method; assay type: functional, organism-based, RBC; conditions: Erythrocyte

SMILES | IC50 [1] [µM] | IC50 [2] [µM]
CC[C@H]1N[C@H]2C[C@@]3(C(=O)N(OC)c4cc(OC)ccc43)[C@@H]3C[C@@H]1[C@@H]2CO3 | > 50 | 59.5
C/C=C1/CN(C)[C@@H]2Cc3c([nH]c4ccccc34)C(=O)C[C@H]1[C@H]2C(=O)OC | > 50 | 22.5
C/C=C1/CN(C)[C@@H]2Cc3c([nH]c4ccccc34)[C@@H](S)C[C@H]1[C@H]2C(=O)OC | > 50 | 1.05
CC[C@H]1N[C@H]2C[C@@]3(C(=O)N(OC)c4ccccc43)[C@@H]3C[C@@H]1[C@@H]2CO3 | > 50 | 42.5

Reference: ChEMBL document CHEMBL4837190, “Targeted Isolation of Hemitheion from Mostuea brunonis, a Proposed Biosynthetic Intermediate of Theionbrunonines” (J Nat Prod, 2021)
